Source: patent US20250314641A1, “OBLIQUE LINE SCANNER SYSTEMS AND METHODS FOR HIGH THROUGHPUT SINGLE MOLECULE TRACKING IN LIVING CELLS” (EIKON THERAPEUTICS, INC., priority 2022, published 2025)

Tested on: Halo-PCNA labeled U2OS cells
Experiment: Cell cycle phase assignment by machine learning model in Halo-PCNA U2OS cells
Type: cell-based
Conditions: 2 mM Thymidine (S-phase block) or 10 mM RO-3306 (G2-M block)
Protocol: FIGS. 20A-20F illustrate that OLS can be applied to capture the inter and intracellular heterogeneity of single protein dynamics. FIG. 20A depicts the analysis of sources of variance in SMT for KEAP1 measured under either OLS or HILO illumination. The contribution of cell to cell variation is 17-32 fold greater than that of FOV level or well to well variances, respectively. FIG. 20B depicts representative images of Halo-PCNA labeled cells treated with 2 mM Thymidine or 10 mM RO-3306 (top). Cell cycle prediction from a machine learning (ML) model used to color cell by cycle phase (bottom). FIG. 20C depicts the quantification of the fraction of cells in each cell phase in response to cycle block treatments in FIG. 20B. The following number of cells were analyzed for each condition: 34,067 for DMSO, 3,831 for RO-3306 and 6,044 for thymidine. […]
Time-lapse microscopy was conducted on Halo-PCNA labeled with 50 nM JFX650, to achieve near-saturating labeling, for 12 hours at 12 frames per hour (FIG. 21A). […] When cells in each cell phase were analyzed separately, it became apparent that the slow-moving population of PCNA was exclusively found in cell predicted to be in S-phase and that there was a marked decrease in the fast-moving population (FIG. 20E). […]
Cell cycle as provided above can be automatically determined using an image (e.g., an image of JF549-labeled PCNA). […]

SMILES	fraction of cells assigned to cell cycle phases
O=C1NC(=NCc2cccs2)S/C1=C\c1ccc2ncccc2c1 [RO-3306]	expected enrichment in the fraction of cells assigned to the respective cell phases
Cc1cn([C@H]2C[C@H](O)[C@@H](CO)O2)c(=O)[nH]c1=O [thymidine]	expected enrichment in the fraction of cells assigned to the respective cell phases
